We go through three molecules from US11078202B2, “β-lactamase inhibitor and use thereof” (priority 2018, dated 2021).

Format in all cases: cell-based
Assay [1] relates to Klebsiella pneumoniae XNWB 0003. Briefly: MIC assay of test compounds combined with ceftazidime (8 μg/mL). The settings on record: ceftazidime 8 μg/mL fixed. In outline:
(§1)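 Antibiotic potentiation test: compound serially diluted, partner β-lactam at constant concentration, CAMHB medium, saline-standardised inoculum (OD600 0.1-0.15) diluted 300-fold. Incubated 16-20 h at 35±2 °C.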

The test system of assay [2] is Acinetobacter baumannii XNWB 0007. The assay is described as above. The following applies: ceftazidime 8 μg/mL fixed. In outline:
as §1

For assay [3], the system named is Klebsiella pneumoniae XNWB 0004. The description is as above. The settings on record: ceftazidime 8 μg/mL fixed. In outline:
as §1

For assay [4], the system named is Klebsiella pneumoniae XNWB 0005. Described as above. The following applies: ceftazidime 8 μg/mL fixed. An outline of the steps: as §1
The subject of assay [5] is Pseudomonas aeruginosa XNWB 0008. Described as above. The following applies: ceftazidime 8 μg/mL fixed. In outline: as §1
In assay [6] the test system is Klebsiella pneumoniae XNWB 0002. The description is as above. The following applies: ceftazidime 8 μg/mL fixed. An outline of the steps:
as §1

The test system of assay [7] is Klebsiella pneumoniae XNWB 0001. The description is as above. The following applies: ceftazidime 8 μg/mL fixed. In outline: as §1
Assay [8] concerns Klebsiella pneumoniae XNWB 0006. Described as above. The following applies: ceftazidime 8 μg/mL fixed. In outline: as §1
In assay [9] the test system is Enterobacter aerogenes XNWB 0011. Description: MIC assay of test compounds combined with ampicillin (8 μg/mL). The settings on record: ampicillin 8 μg/mL fixed. The protocol:
(§2) The bacterial strains used for the minimum inhibitory concentration (MIC) test were frozen in a −80° C. ULT freezer and thawed 2 days before use. A small amount of frozen bacterial strains were scraped using a sterile inoculating loop, streaked onto a TSA solid culture dish for inoculation, and then cultured for 20-24 h at 35±2° C. in a normal atmospheric environment.
(§3) 5-10 colonies with similar morphology were picked from the culture dish using a sterile inoculating loop and then re-streaked onto a suitable solid culture dish. Then the dish was placed into a normal incubator for culture for 20-24 h at 35±2° C.
(§4) 5-10 single bacterial colonies were picked from the solid culture dish, resuspended in 500 μL of 0.9% NaCl, and adjusted to an OD600 of 0.1-0.15 with a spectrophotometer.
(§5) The bacteria were then diluted 300-fold with 1.1×CAMHB.
(§6) Test compounds of columns A-H: having a highest final test concentration of 64 μg/mL or 32 μg/mL, 2-fold diluted.
(§7) Dilution of test compounds: All test compounds were dissolved and diluted in dimethylsulfoxide (DMSO). 170 μL of 3.2 mg/mL (50*64 μg/mL) compound was transferred to wells (A1-H1) of column 1 of a dilution master plate and then 85 μL of DMSO was transferred to wells of other columns. Each compound was diluted 2-fold in sequence (i.e., 85 μL of compound was pipetted from column 1 into column 2 and mixed uniformly, 85 μL of compound was pipetted from column 2 into column 3 and mixed uniformly, then 85 μL of compound was pipetted from column 3 into column 4 and mixed uniformly, and so on until the dilution was done in column 11).
(§8) Preparation of an additive of ampicillin: Ampicillin was dissolved in ddH2O. 30 μL of 100 μg/mL (12.5×8 μg/mL) ampicillin was transferred to columns 1-11 of an additive plate, followed by the addition of 30 μL of ddH2O to column 12.
(§9) 2 μL of each compound in the dilution master plate of the test compounds was transferred to the corresponding well of the assay plates. In the mean time, 2 μL of 100% DMSO was transferred to the compound-free wells (GC and SC wells). (1) 8 μL of imipenem in the additive plate of imipenem was transferred to the corresponding wells of the assay plates; (2) 8 μL of ceftazidime in the additive plate of ceftazidime was transferred to the corresponding wells of the assay plates; (3) 8 μL of ampicillin in the additive plate of ampicillin was transferred to the corresponding wells of the assay plates.
(§10) 90 μL of corresponding bacterial inocula were added to wells (except for SC wells) of the assay plates.
(§11) After addition, the 6 assay plates were covered by sterile covers. The mixtures in the assay plates were centrifuged by a centrifuge at 1000 rpm for 30 s, and mixed uniformly by oscillating with a microplate oscillator at 800 rpm for 1 min, and then cultured in a common incubator for 16-20 h at 35±2° C.
(§12) The minimum inhibitory concentration of each compound was recorded by reference to guidelines from the Clinical and Laboratory Standards Institute.
(§13) The minimum inhibitory concentrations of the compounds of the present invention and antibiotics (imipenem, ceftazidime, and ampicillin) against 11 strains of bacteria were tested in this study by reference to the medium microdilution method as indicated by the Clinical and Laboratory Standards Institute. The effect of the test compounds in combination with imipenem, ceftazidime, and ampicillin was also tested. Compounds were diluted two-fold in 96-well plates from the highest detection concentration of 64 μg/mL. The test compounds were tested in combination with a fixed concentration of imipenem (4 μg/mL), ceftazidime (8 μg/mL), and ampicillin (8 μg/mL). The bacterial inocula in the assay plates were resuscitated from TSA and diluted in CAMHB, while growth controls (GC wells) and sterile controls (SC wells) were set up in the assay plates. […]

For assay [10], the system named is Escherichia coli XNWB 0010. The assay is described as above. The following applies: ampicillin 8 μg/mL fixed. As for the experimental part:
as §2, §3, §4, §5, §6, §7, §8, §9, §10, §11, §12, §13

Assay [11] relates to Escherichia coli XNWB 0009. The assay is described as above. The following applies: ampicillin 8 μg/mL fixed. The protocol:
as §2, §3, §4, §5, §6, §7, §8, §9, §10, §11, §12, §13

The test system of assay [12] is Klebsiella pneumoniae XNWB 0003. Description: MIC assay of test compounds combined with imipenem (4 μg/mL). The following applies: imipenem 4 μg/mL fixed. In outline:
as §1

The subject of assay [13] is Acinetobacter baumannii XNWB 0007. Described as above. The settings on record: imipenem 4 μg/mL fixed. In outline:
as §1

Assay [14] deals with Klebsiella pneumoniae XNWB 0004. The description is as above. The following applies: imipenem 4 μg/mL fixed. In outline:
as §1

Assay [15] concerns Klebsiella pneumoniae XNWB 0005. Described as above. The settings on record: imipenem 4 μg/mL fixed. An outline of the steps: as §1
Assay [16] concerns Pseudomonas aeruginosa XNWB 0008. The assay is described as above. The following applies: imipenem 4 μg/mL fixed. An outline of the steps:
as §1

In assay [17] the test system is Klebsiella pneumoniae XNWB 0002. The description is as above. The settings on record: imipenem 4 μg/mL fixed. An outline of the steps: as §1
Assay [18] has as its system Klebsiella pneumoniae XNWB 0001. The description is as above. The following applies: imipenem 4 μg/mL fixed. An outline of the steps: as §1
In assay [19] the test system is Klebsiella pneumoniae XNWB 0006. The description is as above. The following applies: imipenem 4 μg/mL fixed. In outline: as §1

Where a name gives a salt, the structure may show the parent alone.

As for `O=C1N2C[C@H](N1OS(=O)(=O)O)C1(CC1)C[C@H]2c1nnc(CNC2CNC2)o1` [Example 14, (1R,4S)-4-(5-((azetidin-3-ylamino)methyl)-1,3,4-oxadiazol-2-yl)-6-oxo-5,7-diazaspiro [bicyclo[3.2.1]octane-2,1′-cyclopropan]-7-yl sulfate], the “The minimum concentration of test compounds combined with ceftazidime (8 μg/mL) for bacteriostasis” value is “B (B: 8-16 μg/mL)” in assay [1]; “C (C: 16-128 μg/mL)” in assay [2]; “B (B: 8-16 μg/mL)” in [3]; “B (B: 8-16 μg/mL)” in assay [4]; “C (C: 16-128 μg/mL)” in assay [5]; “A (A: <8 μg/mL)” in [6]. Moreover, the “The minimum concentration of test compounds combined with ceftazidime (8 μg/mL) for bacteriostasis” value in [7] and in assay [8] was “A (A: <8 μg/mL)” each time. Also, the “The minimum concentration of test compounds combined with ampicillin (8 μg/mL) for bacteriostasis” value in assay [9] was “B (B: 8-16 μg/mL)”; in [10] it was 4 µg/mL; in [11], “A (A: <8 μg/mL)”. In addition, the “The minimum concentration of test compounds combined with imipenem (4 μg/mL) for bacteriostasis” value was “A (A: <8 μg/mL)” in [12]; “C (C: 16-128 μg/mL)” in assay [13]; “A (A: <8 μg/mL)” in assay [14]; “A (A: <8 μg/mL)” in assay [15]; “B (B: 8-16 μg/mL)” in [16]; “A (A: <8 μg/mL)” in [17]. Also, the “The minimum concentration of test compounds combined with imipenem (4 μg/mL) for bacteriostasis” value in assay [18] and in assay [19] was “A (A: <8 μg/mL)” throughout.
Regarding `N[C@H]1C[C@H](Cc2nnc([C@@H]3CC4(CC4)[C@@H]4CN3C(=O)N4OS(=O)(=O)O)o2)C1` [Example 20, (1R,4S)-4-(5-(((1S,3S)-3-aminocyclobutyl)methyl)-1,3,4-oxadiazol-2-yl)-6-oxo-5,7-diazaspiro[bicyclo[3.2.1]octane-2,1′-cyclopropan]-7-yl sulfate], the “The minimum concentration of test compounds combined with ceftazidime (8 μg/mL) for bacteriostasis” value in assay [1] is on record as “A (A: <8 μg/mL)”; in assay [2], “C (C: 16-128 μg/mL)”; in [3] it was “A (A: <8 μg/mL)”; in assay [4] it was “A (A: <8 μg/mL)”; in assay [5] it was “B (B: 8-16 μg/mL)”; in [6] it was “A (A: <8 μg/mL)”. Moreover, the “The minimum concentration of test compounds combined with ceftazidime (8 μg/mL) for bacteriostasis” value in [7] and in assay [8] was “A (A: <8 μg/mL)” in each case. Besides, the “The minimum concentration of test compounds combined with imipenem (4 μg/mL) for bacteriostasis” value in assay [12] is “A (A: <8 μg/mL)”; in assay [13], “B (B: 8-16 μg/mL)”; in [14], “A (A: <8 μg/mL)”; in assay [15] it was “A (A: <8 μg/mL)”; in assay [16], “A (A: <8 μg/mL)”; in [17], “A (A: <8 μg/mL)”. The “The minimum concentration of test compounds combined with imipenem (4 μg/mL) for bacteriostasis” value in assay [18] and in assay [19] was “A (A: <8 μg/mL)” in each case.
With `CN(Cc1cc([C@@H]2CC3(CC3)[C@@H]3CN2C(=O)N3OS(=O)(=O)O)no1)C(=N)N` [Example 33, (1R,4S)-4-(5-((1-methylguanidino)methyl)isoxazol-3-yl)-6-oxo-5,7-diazaspiro[bicycle [3.2.1]octane-2,1′-cyclopropan]-7-yl sulfate], the “The minimum concentration of test compounds combined with ceftazidime (8 μg/mL) for bacteriostasis” value in [1] is recorded as “C (C: 16-128 μg/mL)”; in [2] it was “C (C: 16-128 μg/mL)”; in [3] it was “C (C: 16-128 μg/mL)”; in [4], “B (B: 8-16 μg/mL)”; in [5], “C (C: 16-128 μg/mL)”; in assay [6], “A (A: <8 μg/mL)”. Also, the “The minimum concentration of test compounds combined with ceftazidime (8 μg/mL) for bacteriostasis” value is reported as “B (B: 8-16 μg/mL)” in assay [7] and “A (A: <8 μg/mL)” in [8]. Moreover, the “The minimum concentration of test compounds combined with imipenem (4 μg/mL) for bacteriostasis” value in assay [12] is listed as “A (A: <8 μg/mL)”; in assay [13], “C (C: 16-128 μg/mL)”; in assay [14], “A (A: <8 μg/mL)”; in [15], “A (A: <8 μg/mL)”; in assay [16] it was “B (B: 8-16 μg/mL)”; in [17] it was “A (A: <8 μg/mL)”. In addition, the “The minimum concentration of test compounds combined with imipenem (4 μg/mL) for bacteriostasis” value in assay [18] and in [19] was “A (A: <8 μg/mL)” throughout.
